Consider one compound from patent US12544375B2, “Small molecule therapeutic for parkinson's disease paired with a biomarker of therapeutic activity” (The Board of Trustees of the Leland Stanford Junior …, priority 2019, dated 2026).

The target of the experiment is T1, Miro2 (Homo sapiens, UniProt Q8IXI1).
T1 construct: Miro1 Reducer had no influence on Miro2 in either healthy or PD cells; endogenous in cells; host or cells: human skin fibroblasts (Healthy-1, PD-2)
In words: Miro2 response to CCCP in fibroblasts, Western blotting. It counts as cell-based. Conditions: healthy or PD cells, CCCP 6 hrs. As to the method:
FIG. 2A-FIG. 2F. Miro1 Reducer Eliminates the Miro1 Defect in PD Fibroblasts. (FIG. 2A) Chemical properties of Miro1 Reducer. (FIG. 2B) Wild-type flies (w^1118) were fed with DMSO alone (0 μM Miro1 Reducer) or Miro1 Reducer in DMSO at 250 μM for 7 days, and lysed and blotted as indicated. The band intensities are normalized to those of Tubulin from the same blots. n=4. (FIG. 2C-FIG. 2E) Fibroblasts were treated, lysed, and blotted as indicated. (FIG. 2C) Band intensities are normalized to those of GAPDH from the same blots and compared to “Healthy-1, no treatment” except otherwise indicated. n=4. (FIG. 2D) Band intensities are normalized to those of ATP5β from the same blots and expressed as a percentage of the mean of “0 μM Miro1 Reducer with CCCP”. Mean±S.E.M is shown. n=3. (FIG. 2E) Band intensities are normalized to those of GAPDH from the same blots and compared to “Healthy-1, no CCCP, no MG132” except otherwise indicated. n=4. (FIG. 2F) Healthy-1 and PD-2 fibroblasts were transfected as indicated, and immunostained with anti-Myc (Miro1, green) and stained with Dapi (blue). The Miro1 intensity is normalized to that of mito-dsRed from the same cell and quantified across 37-62 cells from 5 fields each transfection, 3 independent transfections. Scale bars: 50 μm. For (FIG. 2C-FIG. 2F), both CCCP and Miro1 Reducer were dissolved in DMSO. […]

T1 sequence (Q8IXI1 whole entry): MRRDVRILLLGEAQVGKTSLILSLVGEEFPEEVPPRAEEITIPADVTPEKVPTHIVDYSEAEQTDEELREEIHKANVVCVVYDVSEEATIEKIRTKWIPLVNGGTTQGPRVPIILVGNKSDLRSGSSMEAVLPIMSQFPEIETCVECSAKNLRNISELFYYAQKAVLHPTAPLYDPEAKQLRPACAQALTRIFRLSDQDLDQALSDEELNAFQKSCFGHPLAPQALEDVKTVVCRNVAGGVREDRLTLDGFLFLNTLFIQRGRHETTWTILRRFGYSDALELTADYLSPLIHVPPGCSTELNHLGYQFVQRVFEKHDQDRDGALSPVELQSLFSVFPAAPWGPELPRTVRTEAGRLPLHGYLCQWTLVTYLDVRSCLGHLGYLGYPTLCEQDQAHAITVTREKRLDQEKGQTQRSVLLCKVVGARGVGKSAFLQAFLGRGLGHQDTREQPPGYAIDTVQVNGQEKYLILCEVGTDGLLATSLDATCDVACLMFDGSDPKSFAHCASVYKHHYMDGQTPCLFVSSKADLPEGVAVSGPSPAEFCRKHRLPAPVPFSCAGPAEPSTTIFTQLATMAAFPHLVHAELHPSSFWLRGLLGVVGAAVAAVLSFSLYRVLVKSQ

`O=C(Nc1ccc(Nc2cc(-n3ccnc3)ncn2)cc1)Nc1cccc(F)c1` [Miro1 Reducer]: the “influence on Miro2” value was “no influence”.
